Assay results as given in the supplement of paper PMC10307832.

Columns and labels:
Test in all cases: relative viability (nuclei count vs DMSO), 5 days (fraction); higher = more cells survive
KN-93 + Trametinib = compound: CN(C/C=C/C1=CC=C(C=C1)Cl)CC2=CC=CC=C2N(CCO)S(=O)(=O)C3=CC=C(C=C3)OC [KN-93] + CC(=O)Nc1cccc(-n2c(=O)n(C3CC3)c(=O)c3c(Nc4ccc(I)cc4F)n(C)c(=O)c(C)c32)c1 [Trametinib] (partner 0.02 µM)
Method in brief: (§1)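 For relative viability, nuclei counts in treated wells were divided by those in vehicle wells. Lung cancer cell lines had been pin-tool dosed in 1536-well plates the day after seeding and cultured for 5 days, then fixed and stained in one step (final 0.05% Triton X-100, 1% formaldehyde, 1 ug/ml Hoechst) and imaged at 4×. Doses were one drug alone or a fixed anchor-drug dose plus five library-drug doses (not always all listed) in √10 steps, and values are duplicate-plate medians.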

KN-93 + Navitoclax = compound: CN(C/C=C/C1=CC=C(C=C1)Cl)CC2=CC=CC=C2N(CCO)S(=O)(=O)C3=CC=C(C=C3)OC [KN-93] + CC1(C)CCC(c2ccc(Cl)cc2)=C(CN2CCN(c3ccc(C(=O)NS(=O)(=O)c4ccc(N[C@H](CCN5CCOCC5)CSc5ccccc5)c(S(=O)(=O)C(F)(F)F)c4)cc3)CC2)C1 [Navitoclax] (partner 0.5 µM)
Method in brief: as §1

KN-93 + Foretinib = compound: CN(C/C=C/C1=CC=C(C=C1)Cl)CC2=CC=CC=C2N(CCO)S(=O)(=O)C3=CC=C(C=C3)OC [KN-93] + COc1cc2c(Oc3ccc(NC(=O)C4(C(=O)Nc5ccc(F)cc5)CC4)cc3F)ccnc2cc1OCCCN1CCOCC1 [Foretinib] (partner 0.25 µM)
Method in brief: as §1

KN-93 + Lapatinib = compound: CN(C/C=C/C1=CC=C(C=C1)Cl)CC2=CC=CC=C2N(CCO)S(=O)(=O)C3=CC=C(C=C3)OC [KN-93] + CS(=O)(=O)CCNCc1ccc(-c2ccc3ncnc(Nc4ccc(OCc5cccc(F)c5)c(Cl)c4)c3c2)o1 [Lapatinib] (partner 2 µM)
Method in brief: as §1

KN-93 + Dasatinib = compound: CN(C/C=C/C1=CC=C(C=C1)Cl)CC2=CC=CC=C2N(CCO)S(=O)(=O)C3=CC=C(C=C3)OC [KN-93] + Cc1nc(Nc2ncc(C(=O)Nc3c(C)cccc3Cl)s2)cc(N2CCN(CCO)CC2)n1 [Dasatinib] (partner 0.075 µM)
Method in brief: as §1

Row | Cell Line | relative viability (KN-93 + Trametinib; first compound 0.08 µM) | relative viability (KN-93 + Trametinib; first compound 0.253 µM) | relative viability (KN-93 + Trametinib; first compound 2.53 µM) | relative viability (KN-93 + Trametinib; first compound 8 µM) | relative viability (KN-93 + Navitoclax; first compound 0.08 µM) | relative viability (KN-93 + Navitoclax; first compound 0.253 µM) | relative viability (KN-93 + Navitoclax; first compound 2.53 µM) | relative viability (KN-93 + Navitoclax; first compound 8 µM) | relative viability (KN-93 + Foretinib; first compound 0.08 µM) | relative viability (KN-93 + Foretinib; first compound 0.253 µM) | relative viability (KN-93 + Foretinib; first compound 2.53 µM) | relative viability (KN-93 + Foretinib; first compound 8 µM) | relative viability (KN-93 + Lapatinib; first compound 0.08 µM) | relative viability (KN-93 + Lapatinib; first compound 0.253 µM) | relative viability (KN-93 + Lapatinib; first compound 2.53 µM) | relative viability (KN-93 + Lapatinib; first compound 8 µM) | relative viability (KN-93 + Dasatinib; first compound 0.08 µM) | relative viability (KN-93 + Dasatinib; first compound 0.253 µM) | relative viability (KN-93 + Dasatinib; first compound 2.53 µM) | relative viability (KN-93 + Dasatinib; first compound 8 µM)
1 | 201T | 0.714 | 0.754 | 0.711 | 0.599 | 1.23 | 1.21 | 1.19 | 1.07 | 1.06 | 0.711 | 1.08 | 0.566 | 1.1 | 0.955 | 1.03 | 0.988 | 0.604 | 0.421 | 0.533 | 0.342
2 | A-427 | 0.799 | 0.746 | 0.772 | 0.438 | 0.93 | 0.843 | 0.991 | 0.664 | 1.06 | 1.11 | 1.04 | 0.807 | 1.21 | 1.28 | 1.05 | 0.878 | 0.71 | 0.668 | 0.672 | 0.324
3 | ABC-1 | – | – | – | – | – | – | – | – | 0.956 | 1.17 | 0.873 | 0.314 | 0.92 | 1.64 | 1.18 | 1.05 | 0.585 | 0.476 | 0.468 | 0.203
4 | BEN | 1.08 | 1.19 | 1.18 | 0.67 | – | 0.062 | 0.0593 | 0.0709 | 0.917 | 0.599 | 0.714 | 0.455 | – | 0.968 | 0.918 | 0.362 | 0.307 | 0.319 | 0.307 | 0.266
5 | CAL-12T | 0.345 | 0.35 | 0.289 | 0.28 | 1.2 | 1.19 | 1.53 | 1.23 | 1.01 | 1.27 | 1.09 | 0.565 | 0.616 | 0.574 | 0.716 | 0.496 | 0.358 | 0.286 | 0.509 | 0.139
6 | COR-L23 | 0.554 | 0.625 | 0.722 | 0.395 | 0.877 | 1.02 | 1.37 | 0.626 | 0.907 | 1.08 | 1.14 | 0.654 | 0.846 | 1.47 | 0.901 | 0.508 | 0.505 | 0.45 | 0.595 | 0.354
7 | ChaGo-K-1 | 0.906 | 1.03 | 0.79 | 0.785 | 1.58 | 1.08 | 1 | 0.54 | 0.866 | 0.981 | 0.832 | 0.669 | – | – | – | – | 0.555 | 0.662 | 0.534 | 0.341
8 | HCC-44 | 1.14 | 0.954 | 1.04 | 0.83 | 0.852 | 0.892 | 0.951 | 0.752 | – | – | – | – | 0.946 | 0.945 | 1.28 | 0.81 | – | – | – | –
9 | IA-LM | – | – | – | – | 0.975 | 0.826 | 1.23 | 0.439 | – | 1.36 | 1.3 | 0.926 | 0.837 | 0.831 | 1.31 | 0.572 | – | – | – | –
10 | LCLC-103H | 0.692 | 0.678 | 0.609 | 0.551 | – | – | – | – | 0.901 | 1.01 | 0.799 | 0.536 | – | – | – | – | 0.438 | 0.464 | 0.438 | 0.26
11 | NCI-H358 | 0.147 | 0.133 | 0.132 | 0.112 | – | – | – | – | 0.519 | 0.733 | 0.64 | 0.335 | 0.49 | 0.528 | 0.444 | 0.291 | 0.182 | 0.168 | 0.15 | 0.148
12 | NCI-H441 | – | 0.422 | 0.401 | 0.177 | – | 0.573 | 0.747 | 0.238 | 1.08 | 1.23 | 1.2 | 0.73 | – | – | – | – | 0.758 | 0.639 | 0.617 | 0.458
13 | NCI-H650 | 0.933 | 1.08 | 0.998 | 0.794 | – | – | – | – | 1.11 | 0.972 | 0.968 | 0.705 | 1.19 | 1.04 | 1.29 | 0.615 | 0.465 | 0.526 | 0.417 | 0.355
14 | NCI-H661 | 0.525 | 0.563 | 0.472 | 0.383 | – | – | – | – | 0.942 | 1.13 | 0.976 | 0.481 | 0.484 | 0.511 | 0.448 | 0.447 | 1.01 | 0.808 | 0.69 | 0.413
15 | NCI-H1563 | – | – | – | – | – | – | – | – | 0.918 | 0.878 | 0.858 | 0.659 | 0.946 | 1 | 0.937 | 0.641 | 0.473 | 0.415 | 0.471 | 0.377
16 | NCI-H1703 | – | – | – | – | 0.936 | 1.11 | 1.04 | 0.179 | 0.351 | 0.364 | 0.352 | 0.238 | 1.06 | 1.41 | 1.03 | 0.265 | – | – | – | –
17 | NCI-H1792 | 0.277 | 0.441 | 0.487 | 0.275 | – | 0.705 | 0.75 | 0.492 | – | – | – | – | – | 0.904 | 1.67 | 0.818 | 0.651 | 0.681 | 0.973 | 0.633
18 | NCI-H2342 | 0.744 | 0.687 | 0.94 | 0.78 | – | – | – | – | 0.918 | 0.962 | 1.06 | 0.902 | – | – | – | – | 0.277 | 0.327 | 0.354 | 0.277
19 | SW 900 | 0.93 | 0.835 | 1.04 | 0.643 | – | – | – | – | 0.851 | 0.942 | 1.02 | 0.762 | – | – | – | – | 0.609 | 0.568 | 0.65 | 0.48
